Results published in PubChem BioAssay AID179 (DTP/NCI, 2004).
Where “and” joins values, the source holds several entries; their conditions need not be identical. Equal values may be shown once. Calls of active or inactive are those of the source.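 The calls were made as follows: active = compounds giving half or more protection of infected cells from virus-caused growth loss, again on retest; inactive = the rest.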

System: CEM cells HIV-1 protection, formazan growth assay
Test: NCI AIDS Antiviral Assay
Details: for IC50: measured here: growth of uninfected CEM cells
Procedure, shortened: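 Screen of anti-HIV-1 activity in human CEM cells using a formazan-based growth measurement at five drug concentrations. Hits with 50% or greater protection were repeated, and confirmation required reproducible complete protection.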

Row | SMILES | EC50 [µM] | IC50 | outcome
1 | CN(CCCNC(=O)c1cn(C)c2c1ccc1ccccc12)CCCNC(=O)c1cn(C)c2c1ccc1ccccc12 | > 200 | 2.88 µM | –
2 | CCOC(=O)CSC1NC(C(=O)OC)CC1OC (centres undefined) | > 200 | > 200 µM | –
3 | Cn1c2ccccc2c2nc3ccccc3nc21 | > 22.4 | > 22.4 µM | –
4 | O=C1COC(c2ccccc2O)=NN1Cc1ccccc1 | > 49 | > 49 µM | –
5 | C=CC[C@@]12CCC(=O)C=C1CCCC2=O | – | – | inactive
6 | CCc1cc(CCC(=O)Nc2c(C)cccc2C)[nH]n1 | > 912 | > 912 µM | –
7 | CC1(C)CC(=O)c2c(nc(SSc3nc4c(c(-c5ccc(Br)cc5)c3C#N)C(=O)CC(C)(C)C4)c(C#N)c2-c2ccc(Br)cc2)C1 | 18.6 | 162 µM | –
8 | C=CCOP1(OCC=C)=NP(OCC=C)(OCC=C)=NP(OCC=C)(OCC=C)=N1 | > 200 | 8.51 µM | –
9 | Cc1ccc(NC(=O)C(=O)CC(=O)c2ccccc2)cc1C | > 4.9 | > 4.9 µM | –
10 | COc1ccc(/C=C2\CCc3ccccc3C2=O)cc1 | > 19.5 | 12.6 µM | –
11 | CC1=NS(=O)(=O)c2cc(Cl)ccc2N1 | > 562 | > 407 µM and 537 µM | –
12 | O=C1/C(=C/c2cccc([N+](=O)[O-])c2)CCCc2ccccc21 | > 200 | 6.31 µM | –
13 | NC1=NN(c2ccccc2)C(=O)C1/C(=N\NC(=O)c1cc2ccccc2cc1O)C(=O)Nc1cccc(C(F)(F)F)c1 (centres undefined) | > 6.61 | > 6.61 µM | –
14 | Nc1c(Cl)cc(Cl)cc1C(=O)O | > 200 | 195 µM | –
15 | C=CCc1cccc(/C=N\N=C(/N)NO)c1O | – | – | inactive
16 | COC(=O)c1ccccc1/C=C1\Cc2ccc3c(c2C1=O)CCCC3 | > 200 | > 200 µM | –
17 | Cn1c(=O)c2ccccc2c2nc3ccccc3nc21 | – | – | inactive
18 | C=CC(=O)N1C/C(=C\c2ccc([N+](=O)[O-])cc2)C(=O)/C(=C/c2ccc([N+](=O)[O-])cc2)C1 | > 200 | 0.0631 µM | –
19 | CC[C@@]1(OS(=O)(=O)O)CCC2C3CC=C4CC(O)CC[C@]4(C)C3CC[C@@]21C (some centres undefined) | 107 | 224 µM | –
20 | CC1=Nc2ccccc2N=C(C)C1 | > 200 | > 200 µM | –
21 | Cn1c(=N)n(CC(=O)NC23CC4CC(CC(C4)C2)C3)c2ccccc21 | > 347 | 66.1 µM | –

Row | SMILES | EC50 [µM] | IC50 | outcome
22 | O=C1NC(=O)N2CCSC2(Cc2ccccc2)N1 (centres undefined) | – | – | inactive
23 | CCCCN(CCCC)C(=S)SSC(=S)N(CCCC)CCCC | > 200 | 5.25 µM | –
24 | COC(=O)c1[nH]cnc1O | > 200 | > 200 µM | –
25 | Cc1cn(C2CC(O)C(CO)(C(F)(F)F)O2)c(=O)[nH]c1=O (centres undefined) | > 200 | > 200 µM | –
26 | COC(=O)C1CCC(=O)N1CN(C(C)=O)c1ccccc1Cl (centres undefined) | > 200 | > 200 µM | –
27 | NC(CSS(=O)(=O)O)=NCCCCc1ccccc1 | > 200 | 107 µM | –
28 | C(=Nc1ccccc1C1SCCCS1)c1ccccc1 | > 200 | > 200 µM | –
29 | COC1/C=C\OC2(C)Oc3c(C)c(O)c4c(c3C2=O)C(=O)C=C(NC(=O)C(C)=C/C=C\C(C)C(O)C(C)C2OC(C)(C)OC(C1C)C2C)C4=O (centres undefined) | > 19.5 | 2.4 µM | –
30 | CCOC(=O)C(=CN1CCNC1=S)C(=O)OCC | > 200 | > 200 µM | –
31 | CC(C)CCCC(C)C1CCC2C3CCC4CC5(CCC4(C)C3CCC12C)NCCCS5 (centres undefined) | > 1.58 | > 1.58 µM | –
32 | COc1cc(Nc2nc3cc(C)ccc3nc2-c2ccccc2)cc(OC)c1OC | > 200 | 34.7 µM | –
33 | O=C(OCc1c(-c2ccccc2)nn(-c2ccccc2)c1COC(=O)Oc1ccccc1)Oc1ccccc1 | > 200 | > 200 µM | –
34 | O=C(NCCc1c(-c2ccccc2)[nH]c2ccccc12)C1CCCCC1 | > 200 | 15.8 µM | –
35 | CC(=O)OCC1OC(OC(C)=O)C(NC#N)C(OC(C)=O)C1OC(C)=O (centres undefined) | > 676 | 61.7 µM | –
36 | CCOC(=O)NC(=O)c1cn(CC(=O)NCC(=O)NCC(=O)NCCCN2CCN(CCCNC(=O)CNC(=O)CNC(=O)Cn3cc(C(=O)NC(=O)OCC)c(=O)[nH]c3=O)CC2)c(=O)[nH]c1=O | – | – | inactive
37 | O=C(/C=C/c1ccccc1Cl)c1ccc(Cl)cc1Cl | > 3.31 | > 3.31 µM | –
38 | c1ccc2c(c1)CCCc1cc3ccccc3nc1-2 | > 55 | > 55 µM | –
39 | O=C(O)C(=Cc1ccc(-c2ccc([N+](=O)[O-])cc2)o1)C(=O)O | > 200 | > 200 µM | –
40 | CCCCNc1nc(C#N)c(N)s1 | > 1260 | 204 µM | –
41 | COC(=O)C12C3C4C1C1C2C3C41C(=O)NC(C)(C)CC(=O)O (centres undefined) | > 200 | > 200 µM | –
42 | O=c1ccn([C@@H]2C[C@H](CO)[C@H](O)C2)c(=O)[nH]1 | > 1100 | > 1100 µM | –
